Measurements taken from US11752210B2, “Sensitizing composition using electromagnetic waves for thermal therapy of cancers, and cancer therapy using same” (JINIS CO., LTD., priority 2013, dated 2023).
Like-named read-outs stand apart in the source and are kept apart here. Blank lines part the entries; values can stand above or below the molecule they belong to.

Assays:
[1] = target: apotransferrin (Homo sapiens, UniProt P02787); settings: apotransferrin 200 mg/dL, 37° C. 30 min
Procedure: In order to evaluate binding capacity of the metal ion to apotransferrin, transferrin binding capacity (Unsaturated Iron-Binding Capacity, UIBC) was measured as follows depending on the concentration of iron ion (ferric iron, FeIII+).
Specifically, in order to prepare iron ion aqueous solutions, 3.6 g of FeCl3 (Sigma Aldrich, USA) was dissolved in 400 ml of distilled water with stirring for 20 min or longer, and then the pH of the resulting solution was adjusted to 9 with continuous stirring while a 5M NaOH solution was added dropwise. When a red brownish precipitate appeared, it was stirred at 90° C. for 2 hr and was then centrifuged at 5,000 rpm for 5 min, thus obtaining a ferric hydroxide precipitate, which was then washed with distilled water and dried. The ferric hydroxide in powder form was dissolved in distilled water, yielding ferric hydroxide solutions having concentrations of […]. Each of the ferric hydroxide solutions at individual concentrations was added with 200 mg/dL of apotransferrin (Sigma Aldrich, USA), and mixed in a vortex for 1 min, followed by allowing the reaction between apotransferrin and iron ion to progress at 37° C. for 30 min.
In order to measure the unsaturated iron-binding capacity (UIBC) of apotransferrin, a Ferrozine colorimetric method was used. As the iron standard, ferrous chloride was prepared at a concentration of […] in hydroxylamine hydrochloride, and the reaction solution of apotransferrin and iron was prepared as a test group. Specifically, 2 ml of 0.5M Tris buffer (pH 8) was aliquoted into all test tubes. The blank test tube was filled with 1 ml of distilled water, the standard test tube was filled with 0.5 ml of distilled water and 0.5 ml of the iron standard, and the experimental test tube was filled with 0.5 ml of the reaction solution of apotransferrin and iron ion and 0.5 ml of the iron standard, followed by mixing in a vortex for 1 min.
A spectrophotometer was zeroed at 560 nm, and the absorbance A1 was measured. Next, a 16.6 mM Ferrozine hydroxylamine hydrochloride solution was placed in an amount of […] in each of the test tubes, followed by mixing in a vortex for 1 min. All the test tubes were cultured at 37° C. for 10 min, and the absorbance A2 at 560 nm was measured. The absorbance A560 at 560 nm was calculated by subtracting the absorbance A1 from the absorbance A2.
The unsaturated iron-binding capacity (UIBC) was calculated as follows. UIBC=[standard conc.]−[standard conc.]×Test A560/Standard A560

[2] = tested on: NCI-H460-luc2 tumor xenograft; assay: Thermal cancer therapy with sensitizer, bioluminescence imaging of tumor size in the last week (Example 1, FIG. 12); format: in vivo, BALB/c athymic nude mice; settings: i.v. 1 mg/kg metal ion-bound material or 20 mg/kg transferrin, 100 W 10 min, three times per week, four weeks
Procedure: Next, the potential to treat cancer was evaluated using the metal ion-bound material as the sensitizer upon thermal therapy. A lung cancer cell line NCI-H460-luc2 ([…] Sciences) was cultured, and 5×10^6 cells were subcutaneously injected into 6 to 8-week-old female BALB/c athymic nude mice (Damul Science), and the mice were bred for about 10 days so as to grow tumorous tissue to a size of 100 mm^3 or more, yielding the tumor xenograft animal models for the evaluation of cancer treatment effects. […] After 4 hr, thermal treatment was performed three times per week for a total of four weeks using a radio-frequency hyperthermia system (EHY-2000, Oncothermia) with an energy dose of 100 W for 10 min. As such, a non-treated group and a saline-treated group were set as controls. In order to analyze the size of tumorous tissue in the last week, bioluminescence imaging was performed. For bioluminescence of a luciferase-expressing cancer cell line NCI-H460-luc2, D-luciferin (Xenogen, USA) was intraperitoneally injected at a concentration of 150 mg luciferin/kg/d into the mice, the mice were anesthetized through inhalation using a mixture of isoflurane gas and oxygen, and luminous cancer cells were subjected to overlap photographing using a Xenogen imager (IVIS 200), and analyzed using Igor Pro imaging analysis software.

[3] = tested on: NCI-H460-luc2 tumor xenograft; assay: Thermal cancer therapy with repeated sensitizer dosing, weekly bioluminescence imaging of tumor size over four weeks (Example 1, FIG. 13); format: in vivo, BALB/c athymic nude mice; settings: i.v. three times per week, 0.1 ml of 0.2 mg/ml (iron dextran, iron sucrose) or 5 mg/ml (transferrin); 100 W 30 min or more; four weeks
Procedure: After 4 hr, thermal treatment for 30 min or more using a radio-frequency hyperthermia system (EHY-2000, Oncothermia) with an energy dose of 100 W was performed for a total of four weeks, and the size of tumorous tissue was monitored every week. […] In the group to which transferrin was administered, 0.1 ml of the transferrin aqueous solution having a concentration of 5 mg/ml was intravenously injected. As such, the non-treated group and the saline-treated group were used as controls.
In order to analyze the size of tumorous tissue, bioluminescence imaging was regularly performed at an interval of one week, and analysis was performed using Igor Pro imaging analysis software.

[4] = In vivo accumulation of metal ion in normal and tumorous tissue, ICP-MS (Test Example 5); parameters: species or system BALB/c athymic nude mice; concentration of iron ion (ICP-MS): unit not given here; settings: 1 mg/kg i.v., after 24 hr
Procedure: In order to evaluate the accumulation of the administered metal ion in tumorous tissue through in vivo animal testing, tumor xenograft animal models were manufactured as follows. Specifically, a lung cancer cell line NCI-H460-luc2 (Califer Life Sciences) was cultured, and 5×10^6 cells were subcutaneously injected into 6- to 8-week-old female BALB/c athymic nude mice (Damul Science), and the mice were bred for about 10 days so as to grow tumorous tissue to a size of 100 mm^3 or more, yielding the tumor xenograft animal models.
After 24 hr, in order to carry out inductively coupled plasma mass spectrometry (ICP-MS), 1 g of each tissue was ground using a tissue grinder in an ice bath, and 1 ml of the ground solution was dried at −60° C. in a vacuum of 7 μmHg for 24 hr. The dried powder was added with 2 ml of 6N HCl, placed in a sealed glass reactor, and cultured in an incubator at 55° C. After 12 hr or longer, each sample was mixed in a vortex and then centrifuged at 1,000 rpm for 15 min, and the supernatant was dried with nitrogen gas, added with 1 ml of 0.01N HCl, mixed in a vortex, and then centrifuged at 1,000 rpm for 15 min. The supernatant was recovered, and the concentrations of the metal ions in the normal tissue and the tumorous tissue were measured through ICP-MS (Varian 800-MS, Palo Alto, US).

[5] = tested on: NCI-H460-luc2 tumor xenograft; assay: Temperature of normal and tumorous tissue of tumor xenograft mice on application of electromagnetic waves after sensitizer (Example 1, FIGS. 9 to 11); format: in vivo, BALB/c athymic nude mice; settings: i.v. iron sucrose 1 mg/kg or transferrin 20 mg/kg, 4 hr after administration, 100 W for 3 min
Procedure: To this end, a lung cancer cell line NCI-H460-luc2 (Califer Life Sciences) was cultured, and 5×10^6 cells were subcutaneously injected into 6 to 8-week-old female BALB/c athymic nude mice (Damul Science), and the mice were bred for about 10 days so as to grow tumorous tissue to a size of 100 mm^3 or more, yielding the tumor xenograft animal models for the evaluation of cancer treatment effects.
As the sensitizing composition for thermal therapy, iron sucrose was prepared in the same manner as in Test Example 1, and 0.1 ml of the iron sucrose aqueous solution having a concentration of 0.2 mg/ml was intravenously injected into the established tumor xenograft mice so as to reach a dose of 1 mg/kg.
As the sensitizing composition for thermal therapy, “iron ion-bound apotransferrin” (transferrin) was prepared in the same manner as in Test Example 3, and 0.1 ml of the transferrin aqueous solution having a concentration of 5 mg/ml was intravenously injected into the established tumor xenograft mice so as to reach a dose of 20 mg/kg.
As the control, saline was administered. 4 hr after administration, electromagnetic waves were applied in an energy dose of 100 W for 3 min using a radio-frequency hyperthermia system (EHY-2000, Oncothermia), and the temperatures of normal tissue and tumorous tissue were measured using a thermal imaging device (E60, Korea Rental, Korea).

apotransferrin, sequence (P02787 20-698): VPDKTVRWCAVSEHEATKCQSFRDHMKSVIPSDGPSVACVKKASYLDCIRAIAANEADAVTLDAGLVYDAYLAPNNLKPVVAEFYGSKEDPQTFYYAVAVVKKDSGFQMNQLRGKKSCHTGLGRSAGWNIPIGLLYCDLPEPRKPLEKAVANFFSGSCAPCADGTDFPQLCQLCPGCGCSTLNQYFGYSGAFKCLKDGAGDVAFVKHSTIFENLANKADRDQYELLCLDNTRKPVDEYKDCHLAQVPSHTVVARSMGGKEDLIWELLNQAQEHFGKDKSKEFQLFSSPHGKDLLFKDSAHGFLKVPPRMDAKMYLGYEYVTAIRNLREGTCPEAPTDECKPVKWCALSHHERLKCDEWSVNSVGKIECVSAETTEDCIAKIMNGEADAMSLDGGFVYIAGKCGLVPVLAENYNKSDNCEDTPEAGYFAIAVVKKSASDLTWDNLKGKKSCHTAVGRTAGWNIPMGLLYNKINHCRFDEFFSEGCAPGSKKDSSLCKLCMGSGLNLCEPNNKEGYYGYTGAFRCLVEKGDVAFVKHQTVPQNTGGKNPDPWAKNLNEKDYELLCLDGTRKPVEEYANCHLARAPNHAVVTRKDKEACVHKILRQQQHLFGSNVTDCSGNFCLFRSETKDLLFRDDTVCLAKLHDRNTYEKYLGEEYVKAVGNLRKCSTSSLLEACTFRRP

Molecule: [Fe+3].[OH-].[OH-].[OH-] [iron ion, ferric hydroxide]
- UIBC ([1]; Iron conc. 10 μg/dL): 498 µg/dL
- UIBC ([1]; Iron conc. 50 μg/dL): 481 µg/dL
- UIBC ([1]; Iron conc. 200 μg/dL): 332 µg/dL
- UIBC ([1]; Iron conc. 500 μg/dL): 119 µg/dL

Molecule: Iron dextran [reference compound]
- cancer treatment effects through thermal therapy (size of tumorous tissue, bioluminescence imaging) [2]: excellent
- growth of cancer upon thermal treatment using electromagnetic waves (bioluminescence imaging) [3]: significantly reduced

- Fold increase of iron ion vs saline ([4]; Brain): 2.05
- concentration of iron ion (ICP-MS) ([4]; Brain): 46.2 ± 8.6
- Fold increase of iron ion vs saline ([4]; Heart): 3.08
- concentration of iron ion (ICP-MS) ([4]; Heart): 99.2 ± 2.8
- Fold increase of iron ion vs saline ([4]; Kidney): 1.05
- concentration of iron ion (ICP-MS) ([4]; Kidney): 59.8 ± 4.1
- Fold increase of iron ion vs saline ([4]; Liver): 2.26
- concentration of iron ion (ICP-MS) ([4]; Liver): 168.2 ± 37.3
- Fold increase of iron ion vs saline ([4]; Muscle): 0.98
- concentration of iron ion (ICP-MS) ([4]; Muscle): 28.9 ± 22.1
- Fold increase of iron ion vs saline ([4]; Stomach): 2.99
- concentration of iron ion (ICP-MS) ([4]; Stomach): 83.1 ± 27.7
- concentration of iron ion (ICP-MS) ([4]; Tumor): 44.4 ± 3.9
- Fold increase of iron ion vs saline ([4]; Tumor, 1 mg/kg): ≥ 3.3
- Fold increase of iron ion vs saline ([4]; Tumor, listed as Fe-Sucrose, 1 mg/kg): 3.29
Molecule: ferric hydroxide sucrose complex [Iron sucrose]
- cancer treatment effects through thermal therapy (size of tumorous tissue, bioluminescence imaging) [2]: excellent
- growth of cancer upon thermal treatment using electromagnetic waves (bioluminescence imaging) [3]: significantly reduced
- changes in the temperature before and after the application of electromagnetic waves ([5]; normal tissue): 1 °C
- changes in the temperature before and after the application of electromagnetic waves ([5]; tumorous tissue): 1.9 °C
